Measurements published in ChEMBL document CHEMBL1201862, “PubChem BioAssay data set” (2004).
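Protocol summary: plate cells (96-well), add compound at 5 concentrations, incubate 48 h, interpolate endpoints linearly. The concentration for 50% growth inhibition is given as GI50.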 The source made the active and inactive calls. Cut-off read from the data, not from the text of the source: active = GI50 up to about 1.1 µM and inactive = higher.

Columns and labels:
Test in all cases: growth of human tumour cells (NCI), 48 h
CAKI-1 = system: CAKI-1
SK-OV-3 = system: SK-OV-3
OVCAR-3 = system: OVCAR-3
M19-MEL = system: M19-MEL
EKVX = system: EKVX
SNB-19 = system: SNB-19
ACHN = system: ACHN
SNB-78 = system: SNB-78
SF-268 = system: SF-268
RPMI-8226 = system: RPMI-8226
UACC-257 = system: UACC-257
SK-MEL-2 = system: SK-MEL-2
786-0 = system: 786-0
XF498 = system: XF498
T47D = system: T47D
NCI-H226 = system: NCI-H226
A549 = system: A549
CCRF-CEM = system: CCRF-CEM
SK-MEL-28 = system: SK-MEL-28
PC-3 = system: PC-3
MOLT-4 = system: MOLT-4
A498 = system: A498
HCT-15 = system: HCT-15
SF-295 = system: SF-295
MDA-N = system: MDA-N
HOP-92 = system: HOP-92
SW-620 = system: SW-620
IGROV-1 = system: IGROV-1
SNB-75 = system: SNB-75
LXFL 529 = system: LXFL 529
KM12 = system: KM12
BT-549 = system: BT-549
HCT-116 = system: HCT-116
OVCAR-5 = system: OVCAR-5
RXF 393 = system: RXF 393
NCI/ADR-RES = system: NCI/ADR-RES
OVCAR-8 = system: OVCAR-8
NCI-H23 = system: NCI-H23
UACC-62 = system: UACC-62
HT-29 = system: HT-29
TK-10 = system: TK-10
DU-145 = system: DU-145
OVCAR-4 = system: OVCAR-4
SF-539 = system: SF-539
KM-20L2 = system: KM-20L2
SK-MEL-5 = system: SK-MEL-5
RXF 631 = system: RXF 631
M14 = system: M14
DLD-1 = system: DLD-1
UO-31 = system: UO-31
NCI-H460 = system: NCI-H460
U-251 = system: U-251
HL-60 = system: HL-60
HCC 2998 = system: HCC 2998
HOP-18 = system: HOP-18
NCI-H522 = system: NCI-H522
MDA-MB-435 = system: MDA-MB-435
Hs-578T = system: Hs-578T
SN12C = system: SN12C
Malme-3M = system: Malme-3M
COLO 205 = system: COLO 205
LOX IMVI = system: LOX IMVI
MDA-MB-231 = system: MDA-MB-231
DMS-114 = system: DMS-114
SR = system: SR
DMS-273 = system: DMS-273
K562 = system: K562
HOP-62 = system: HOP-62

C[N+](C)(C)CC1CCCC1=O (stereo not drawn)
GI50 (CAKI-1): 2.48 µM (inactive)
GI50 (SK-OV-3): 16.5 µM (inactive)
GI50 (OVCAR-3): 2.36 µM (inactive)
GI50 (M19-MEL): 2.22 µM (inactive)
GI50 (EKVX): 2.16 µM (inactive)
GI50 (SNB-19): 20.2 µM (inactive)
GI50 (ACHN): 1.09 µM (active)
GI50 (SNB-78): 3.24 µM (inactive)
GI50 (SF-268): 9.64 µM (inactive)
GI50 (RPMI-8226): 0.306 µM (active)
GI50 (UACC-257): 5.53 µM (inactive)
GI50 (SK-MEL-2): 5.61 µM (inactive)
GI50 (786-0): 2.34 µM (inactive)
GI50 (XF498): 1.87 µM (inactive)
GI50 (T47D): 0.192 µM (active)
GI50 (NCI-H226): 17.2 µM (inactive)
GI50 (A549): 19 µM (inactive)
GI50 (CCRF-CEM): 0.213 µM (active)
GI50 (SK-MEL-28): 1.89 µM (inactive)
GI50 (PC-3): 1.41 µM (inactive)
GI50 (MOLT-4): 0.249 µM (active)
GI50 (A498): 13.1 µM (inactive)
GI50 (HCT-15): 2.18 µM
GI50 (SF-295): 19.1 µM (inactive)
GI50 (MDA-N): 1.69 µM (inactive)
GI50 (HOP-92): 1.07 µM (active)
GI50 (SW-620): 0.383 µM (active)
GI50 (IGROV-1): 16 µM (inactive)
GI50 (SNB-75): 3.1 µM (inactive)
GI50 (LXFL 529): 1.26 µM (inactive)
GI50 (KM12): 6.59 µM (inactive)
GI50 (BT-549): 1 µM (active)
GI50 (HCT-116): 1.25 µM (inactive)
GI50 (OVCAR-5): 8.22 µM (inactive)
GI50 (RXF 393): 2.27 µM (inactive)
GI50 (NCI/ADR-RES): 1.94 µM (inactive)
GI50 (OVCAR-8): 2.1 µM (inactive)
GI50 (NCI-H23): 4.45 µM (inactive)
GI50 (UACC-62): 1.6 µM (inactive)
GI50 (HT-29): 1.23 µM (inactive)
GI50 (TK-10): 2.62 µM (inactive)
GI50 (DU-145): 0.0296 µM (active)
GI50 (OVCAR-4): 0.867 µM (active)
GI50 (SF-539): 2.98 µM (inactive)
GI50 (KM-20L2): 2.61 µM (inactive)
GI50 (SK-MEL-5): 5.68 µM (inactive)
GI50 (RXF 631): 14.2 µM (inactive)
GI50 (M14): 0.929 µM (active)
GI50 (DLD-1): 1.01 µM (active)
GI50 (UO-31): 2.5 µM (inactive)
GI50 (NCI-H460): 19.5 µM (inactive)
GI50 (U-251): 13.2 µM (inactive)
GI50 (HL-60): 0.406 µM (active)
GI50 (HCC 2998): 16 µM (inactive)
GI50 (HOP-18): 1.87 µM (inactive)
GI50 (NCI-H522): < 0.0105 µM (active)
GI50 (MDA-MB-435): 1.71 µM (inactive)
GI50 (Hs-578T): 3.43 µM (inactive)
GI50 (SN12C): 2.64 µM (inactive)
GI50 (Malme-3M): 0.789 µM (active)
GI50 (COLO 205): 1.2 µM (inactive)
GI50 (LOX IMVI): 0.832 µM (active)
GI50 (MDA-MB-231): 1.39 µM (inactive)
GI50 (DMS-114): 3.24 µM (inactive)
GI50 (SR): 0.339 µM (active)
GI50 (DMS-273): 6.87 µM (inactive)
GI50 (K562): 0.377 µM (active)
GI50 (HOP-62): 29.8 µM (inactive)
